Results reported in ChEMBL document CHEMBL5331101, “Synthesis and evaluation of N-sulfonylpiperidine-3-carboxamide derivatives as capsid assembly modulators inhibiting HBV in vitro and in HBV-transgenic mice” (Eur J Med Chem, 2023).
Calls of active or inactive are those of the source. The calls are words filed in the database; no cut-off is given here.

Key:
[1] = Hepatotoxicity in C57BL/6 mouse assessed as effect on ALT level in serum at 100 mg/kg, po BID measured for 12 days; assay type: toxicity, organism-based; details: in vivo, 288 h, time 12 day
[2] = Cytotoxicity against human HepAD38 cells assessed as reduction in cell viability incubated for 6 days by CCK-8 assay; assay type: functional; details: HePAD38, 144 h, time 6 day
Hepatitis B virus [3] = assay: Antiviral activity against HBV infected in human HePAD38 cells assessed as reduction in encapsidated pgRNA at 0.625 to 10 uM incubated for 6 days by northern blot analysis; assay type: functional, organism-based; details: dose 0.625-10 µM, time 6.0 day
Hepatitis B virus [4] = assay: Antiviral activity against HBV genotype C infected in human HepG2 cells assessed as inhibition of viral replication; assay type: functional, organism-based
Hepatitis B virus [5] = assay: Antiviral activity against HBV infected in transgenic C57BL/6 mouse assessed as reduction in serum HBeAg level at 30 mg/kg, po BID measured for 12 days by ELISA analysis; assay type: functional, organism-based; details: time 12.0 day
[6] = Toxicity in C57BL/6 mouse assessed as histopathological changes in liver at 30 mg/kg, po measured after 12 days by H and E staining analysis; assay type: organism-based; details: in vivo, 288 h, time 12 day
Hepatitis B virus [7] = assay: Antiviral activity against HBV infected in transgenic C57BL/6 mouse assessed as inhibition of viral replication by measuring log reduction in liver HBV DNA level at 100 mg/kg, po BID measured for 12 days by RT-PCR analysis; assay type: functional; details: time 12 day
[8] = Hepatotoxicity in C57BL/6 mouse assessed as effect on ALT level in serum at 30 mg/kg, po BID measured for 12 days; assay type: toxicity, organism-based; details: in vivo, 288 h, time 12 day
Hepatitis B virus [9] = assay: Antiviral activity against HBV infected in transgenic C57BL/6 mouse assessed as inhibition of viral replication by measuring log reduction in serum HBV DNA level at 100 mg/kg, po BID measured for 12 days by RT-PCR analysis; assay type: functional; details: time 12 day
Hepatitis B virus [10] = assay: Antiviral activity against HBV infected human HePAD38 cells assessed as reduction in HBeAg level in cell supernatant at 0.625 to 10 uM and measured after 6 days by ELISA analysis; assay type: functional, organism-based; details: dose 0.625-10 µM, time 6.0 day
Hepatitis B virus [11] = assay: Antiviral activity against HBV genotype B infected in human HepG2 cells assessed as inhibition of viral replication; assay type: functional, organism-based
Hepatitis B virus [12] = assay: Antiviral activity against HBV infected in human HePAD38 cells assessed as reduction in intracellular 3.5 Kb HBV RNA level at 0.625 to 10 uM and incubated for 6 days by Northern blot analysis; assay type: functional, organism-based; details: dose 0.625-10 µM, time 6.0 day
Hepatitis B virus [13] = assay: Antiviral activity against HBV infected in transgenic C57BL/6 mouse assessed as inhibition of viral replication by measuring log reduction in serum HBV DNA level at 30 mg/kg, po BID measured for 12 days by RT-PCR analysis; assay type: functional; details: time 12 day
Hepatitis B virus [14] = assay: Antiviral activity against HBV infected in transgenic C57BL/6 mouse assessed as reduction in serum HBsAg level at 100 mg/kg, po BID measured for 12 days by ELISA analysis; assay type: functional, organism-based; details: time 12.0 day
Hepatitis B virus [15] = assay: Antiviral activity against HBV infected in human HePAD38 cells assessed as reduction in […] level upto10 uM measured for 6 days by agarose gel electrophoresis-based assay; assay type: functional, organism-based; details: dose 10.0 µM, time 6.0 day
[16] = Hepatotoxicity in C57BL/6 mouse assessed as effect on AST level in serum at 30 mg/kg, po BID measured for 12 days; assay type: toxicity, organism-based; details: in vivo, 288 h, time 12 day
Hepatitis B virus [17] = assay: Antiviral activity against HBV infected in human HePAD38 cells assessed as reduction in intracellular core HBV DNA level at 20 uM incubated for 6 days by qPCR analysis relative to control; assay type: functional; parameters: scale not given: the % may be the effect or the level left; details: time 6 day
Hepatitis B virus [18] = assay: Effect on capsid morphology in human HePAD38 cells infected with Hepatitis B virus at 5 uM incubated for 6 days by immunofluorescence analysis; assay type: functional, organism-based; details: time 6.0 day
Hepatitis B virus [19] = assay: Antiviral activity against HBV infected in transgenic C57BL/6 mouse assessed as reduction in serum HBsAg level at 30 mg/kg, po BID measured for 12 days by ELISA analysis; assay type: functional, organism-based; details: time 12.0 day
Hepatitis B virus [20] = assay: Antiviral activity against HBV infected in transgenic C57BL/6 mouse assessed as reduction in intrahepatic 3.5 kb HBV RNA level at 30 mg/kg, po BID measured for 12 days by RT-PCR analysis; assay type: functional, organism-based; details: time 12.0 day
Hepatitis B virus [21] = assay: Antiviral activity against HBV infected in human HePAD38 cells assessed as reduction of capsid associated HBV DNA; assay type: functional, organism-based
[22] = Selectivity index, ratio of CC50 for cytotoxicity against human HepAD38 cells to EC50 for antiviral activity against HBV infected in human HePAD38 cells; assay type: toxicity, cell-based; details: read-out: Ratio CC50/EC50
Hepatitis B virus [23] = assay: Antiviral activity against HBV infected in human HePAD38 cells assessed as reduction in capsid formation upto 10 uM measured for 6 days by agarose gel electrophoresis-based assay; assay type: functional, organism-based; details: time 6.0 day
Hepatitis B virus [24] = assay: Antiviral activity against HBV infected in human HepAD38 cells assessed as effect on capsid morphology at 20 uM incubated for 3 to 7 days by transmission electron microscopy; assay type: functional, organism-based; details: time 3-7 day
Hepatitis B virus [25] = assay: Antiviral activity against ETV-resistant HBV infected in human HepG2 cells assessed as inhibition of viral replication; assay type: functional, organism-based
Hepatitis B virus [26] = assay: Antiviral activity against HBV infected in human HePAD38 cells assessed as reduction in intracellular 3.5 Kb HBV RNA level at 0.625 to 10 uM and incubated for 6 days by real-time PCR analysis; assay type: functional, organism-based; details: dose 0.625-10 µM, time 6.0 day
Hepatitis B virus [27] = assay: Antiviral activity against HBV infected in human HePAD38 cells assessed as reduction in capsid formation at 0.625 to 10 uM measured for 6 days by agarose gel electrophoresis-based assay; assay type: functional, organism-based; details: dose 0.625-10 µM, time 6.0 day
Hepatitis B virus [28] = assay: Antiviral activity against HBV infected in human HePAD38 cells assessed as decay of viral core protein by agarose gel electrophoresis-based assay; assay type: functional, organism-based
Hepatitis B virus [29] = assay: Antiviral activity against HBV genotype A infected in human HepG2 cells assessed as inhibition of viral replication; assay type: functional, organism-based
Hepatitis B virus [30] = assay: Antiviral activity against HBV genotype D infected in human HepG2 cells assessed as inhibition of viral replication; assay type: functional, organism-based
Hepatitis B virus [31] = assay: Antiviral activity against HBV infected in human HePAD38 assessed as reduction on HBsAg level at 20 uM by ELISA analysis relative to control; assay type: functional; parameters: scale not given: the % may be the effect or the level left
Hepatitis B virus [32] = assay: Antiviral activity against HBV infected in human HePAD38 cells assessed as decay of viral capsid protein by agarose gel electrophoresis-based assay; assay type: functional, organism-based
Hepatitis B virus [33] = assay: Antiviral activity against HBV infected in human HePAD38 assessed as reduction on HBeAg level at 20 uM by ELISA analysis relative to control; assay type: functional; parameters: scale not given: the % may be the effect or the level left
Hepatitis B virus [34] = assay: Antiviral activity against HBV infected in human HePAD38 cells assessed as reduction in HBV core DNA level and incubated for 6 days by southern blot analysis; assay type: functional, organism-based; details: dose 0.625-10 µM, time 6.0 day
[35] = Hepatotoxicity in C57BL/6 mouse assessed as effect on AST level in serum at 100 mg/kg, po BID measured for 12 days; assay type: toxicity, organism-based; details: in vivo, 288 h, time 12 day
Hepatitis B virus [36] = assay: Antiviral activity against wild type HBV infected in human HepG2 cells assessed as inhibition of viral replication; assay type: functional, organism-based
Hepatitis B virus [37] = assay: Antiviral activity against HBV infected in transgenic C57BL/6 mouse assessed as reduction in serum HBeAg level at 100 mg/kg, po BID measured for 12 days by ELISA analysis; assay type: functional, organism-based; details: time 12.0 day
Hepatitis B virus [38] = assay: Antiviral activity against HBV infected in transgenic C57BL/6 mouse assessed as inhibition of viral replication by measuring log reduction in liver HBV DNA level at 30 mg/kg, po BID measured for 12 days by RT-PCR analysis; assay type: functional; details: time 12 day
Hepatitis B virus [39] = assay: Antiviral activity against HBV infected in human HePAD38 cells assessed as reduction in capsid formation measured for 6 days by agarose gel electrophoresis-based assay; assay type: functional, organism-based; details: time 6.0 day
Hepatitis B virus [40] = assay: Antiviral activity against HBV infected in transgenic C57BL/6 mouse assessed as reduction in intrahepatic 3.5 kb HBV RNA level at 100 mg/kg, po BID measured for 12 days by RT-PCR analysis; assay type: functional, organism-based; details: time 12.0 day
[41] = Toxicity in C57BL/6 mouse assessed as histopathological changes in liver at 100 mg/kg, po measured after 12 days by H and E staining analysis; assay type: organism-based; details: in vivo, 288 h, time 12 day
Hepatitis B virus [42] = assay: Antiviral activity against HBV infected human HePAD38 cells assessed as reduction in HBsAg level in cell supernatant at 0.625 to 10 uM and measured after 6 days by ELISA analysis; assay type: functional, organism-based; details: dose 0.625-10 µM, time 6.0 day

With `CCOC(=O)c1c(S(=O)(=O)N2CCC[C@H](C(=O)Nc3ccc(F)c(C)c3)C2)c(C)n(CC(F)(F)F)c1C` as the compound, how does the Activity [1] read?
The Activity was “Non-Toxic”.

What about the CC50 [2] of the same compound?
The CC50 was 82300 nM.

And the Activity (Hepatitis B virus [3])?
The Activity was “Active”.

And the EC50 (Hepatitis B virus [4])?
Its EC50 is 160 nM.

And the Activity (Hepatitis B virus [5])?
Its Activity is “Active”.

And the Activity [6]?
The Activity was “Non-Toxic”.

And the “log(activity)” value (Hepatitis B virus [7])?
Its value is 0.98.

And the Activity [8]?
The Activity was “Non-Toxic”.

And the “log(activity)” value (Hepatitis B virus [9])?
Its value is 2.42.

What about the Activity (Hepatitis B virus [10]) of the same compound?
The Activity was “Active”.

And the EC50 (Hepatitis B virus [11])?
The EC50 was 120 nM.

And the Activity (Hepatitis B virus [12])?
The Activity was “Active”.

What about the “log(activity)” value (Hepatitis B virus [13]) of the same compound?
The value was 1.37.

What about the Activity (Hepatitis B virus [14]) of the same compound?
Its Activity is “inactive”.

And the Activity (Hepatitis B virus [15])?
The Activity was “Active”.

And the Activity [16]?
Its Activity is “Non-Toxic”.

And the Activity (Hepatitis B virus [17])?
The Activity was 12%.

What about the Activity (Hepatitis B virus [18]) of the same compound?
The Activity was “inactive”.

What about the Activity (Hepatitis B virus [19]) of the same compound?
The Activity was “inactive”.

What about the Activity (Hepatitis B virus [20]) of the same compound?
The Activity was “Active”.

And the EC50 (Hepatitis B virus [21])?
Its EC50 is 110 nM.

What about the selectivity ratio [22] of the same compound?
Its selectivity ratio is 775.

What about the Activity (Hepatitis B virus [23]) of the same compound?
The Activity was “Active”.

What about the Activity (Hepatitis B virus [24]) of the same compound?
The Activity was “inactive”.

And the EC50 (Hepatitis B virus [25])?
The EC50 was 7.2 nM.

What about the Activity (Hepatitis B virus [26]) of the same compound?
Its Activity is “Active”.

And the Activity (Hepatitis B virus [27])?
Its Activity is “Active”.

What about the Activity (Hepatitis B virus [28]) of the same compound?
Its Activity is “inactive”.

And the EC50 (Hepatitis B virus [29])?
The EC50 was 130 nM.

And the EC50 (Hepatitis B virus [30])?
Its EC50 is 240 nM.

And the Activity (Hepatitis B virus [31])?
The Activity was 101.8%.

What about the Activity (Hepatitis B virus [32]) of the same compound?
The Activity was “inactive”.

What about the Activity (Hepatitis B virus [33]) of the same compound?
The Activity was 36.9%.

And the Activity (Hepatitis B virus [34])?
Its Activity is “Dose-Dependent Effect”.

And the Activity [35]?
The Activity was “Non-Toxic”.

And the EC50 (Hepatitis B virus [36])?
Its EC50 is 3.1 nM.

What about the Activity (Hepatitis B virus [37]) of the same compound?
Its Activity is “Active”.

What about the “log(activity)” value (Hepatitis B virus [38]) of the same compound?
The value was 0.43.

What about the Activity (Hepatitis B virus [39]) of the same compound?
Its Activity is “Dose-Dependent Effect”.

What about the Activity (Hepatitis B virus [40]) of the same compound?
The Activity was “Active”.

And the Activity [41]?
Its Activity is “Non-Toxic”.

And the Activity (Hepatitis B virus [42])?
The Activity was “inactive”.
